Measured values from patent US20170362498A1, “USE OF MGDA AS ADDITIVE IN PROCESSES FOR RECOVERING CRUDE OIL AND/OR GAS FROM SUBTERRANEAN FORMATIONS” (BASF SE, priority 2014, published 2017).

Legend:
[1] = Determination of stability against strong alkali (solid NaOH), visual inspection; details: for Appearance of test solutions after 96 h of storage: 25 g of 40% by weight aqueous solution, ambient temperature; for Solubility / appearance with increasing NaOH amounts (summary): 40% by weight aqueous solution, 0 to 2.5 g solid NaOH added, up to 96 hours
[2] = Determination of solubility in water (Tsol); assay type: physicochemical; details: minimum temperature for forming a kinetically stable (clear) 50% by weight solution in water; cooled 30° C./h to precipitation, reheated 1° C./h
Protocol: In each case, the solubility was calculated to refer to pure MGDA, without hydrate water.
The solubility of inventive mixtures and of comparison experiments was determined with an apparatus that allowed heating and cooling down liquid solutions. […] Then, the slurry of crystals of MGDA so obtained was again heated at a speed of 1° C./h until a clear solution was obtained. The slurry/solution was checked for solid particles by visible light scattering detection.
The above tests furnished the minimum temperature, Tsol, for forming a kinetically stable 50% by weight solution of the respective mixture of isomers. A higher temperature Tsol correlates with a lower solubility at ambient temperature.

| Appearance of test solutions after 96 h of storage ([1]; NaOH added 1.5 g (6 wt. % vs. 40% solution), * = after 48 hours, listed as MGDA: 50% ee) | Appearance of test solutions after 96 h of storage ([1]; NaOH added 2.0 g (8 wt. % vs. 40% solution), * = after 48 hours, listed as MGDA: 50% ee) | Appearance of test solutions after 96 h of storage ([1]; NaOH added 2.5 g (10 wt. % vs. 40% solution), ** = immediately after addition of NaOH, listed as MGDA: 50% ee) | Solubility / appearance with increasing NaOH amounts (summary) ([1]; listed as mixture according to the present invention (50% ee)) | Appearance of test solutions after 96 h of storage ([1]; NaOH added 0 g (0 wt. % vs. 40% solution)) | Appearance of test solutions after 96 h of storage ([1]; NaOH added 0.5 g (2 wt. % vs. 40% solution)) | Appearance of test solutions after 96 h of storage ([1]; NaOH added 1.0 g (4 wt. % vs. 40% solution)) | Appearance of test solutions after 96 h of storage ([1]; NaOH added 1.5 g (6 wt. % vs. 40% solution), * = after 48 hours, listed as Racemic MGDA) | Appearance of test solutions after 96 h of storage ([1]; NaOH added 2.0 g (8 wt. % vs. 40% solution), * = after 48 hours, listed as Racemic MGDA) | Appearance of test solutions after 96 h of storage ([1]; NaOH added 2.5 g (10 wt. % vs. 40% solution), ** = immediately after addition of NaOH, listed as Racemic MGDA) | Solubility / appearance with increasing NaOH amounts (summary) ([1]; listed as racemic MGDA) | Tsol [2] [°C] | Compound |
| --- | --- | --- | --- | --- | --- | --- | --- | --- | --- | --- | --- | --- |
| clear liquid | clear liquid | clear liquid | remains clear |  |  |  |  |  |  |  |  | CC(C(=O)O)N(CC(=O)O)CC(=O)O (stereo not drawn) [ee value 50.0, methyl glycine diacetic acid] |
|  |  |  |  | clear liquid | clear liquid | clear liquid | turbid* liquid | turbid* liquid | turbid, precipitate** | decreases with increasing NaOH amounts | 103.8 | CC(C(=O)O)N(CC(=O)O)CC(=O)O (stereo not drawn) [ee value zero, methyl glycine diacetic acid] |
